The values that follow come from article PMC9555310, “Novel inhibitors and activity-based probes targeting serine proteases” (Frontiers in Chemistry, 2022).

The target in this experiment is T1, plasmin (Homo sapiens, UniProt P00747).
T1 construct: purchased Sigma-Aldrich (supplement); R&D Systems; host or cells: human plasma
The experiment can be described thus: Irreversible inhibition kinetics of plasmin (fluorogenic substrate progress curves). It counts as biochemical. The conditions noted are these: PBS pH 7.4, 37°C, mean ± SD (n=2); for Ki: Boc-Val-Leu-Lys-NHMec 50 μM; for k 3: first-order rate constant; for k 3 / K i: second-order rate constant of inactivation. The procedure:
A range of inhibitor concentrations were prepared from a 10 mM stock solution of the test compounds (NAP533, NAP559, NAP800, NAP830, NAP849, and NAP962) in N, N-dimethylformamide (DMF). Recombinant protease activities were assayed using the cognate fluorogenic substrates as follows: trypsin (Z-Gly-Gly-Arg-NHMec), thrombin (Boc-Val-Pro-Arg-NHMec), plasmin (Boc-Val-Leu-Lys-NHMec), human neutrophil elastase (MeO-Succinyl-Ala-Ala-Pro-Val-NHMec), and chymotrypsin (Succinyl-Ala-Ala-Pro-Phe-NHMec). Each substrate was used at a final concentration of 50 μM, in the appropriate buffer for each protease. All inhibition assays were performed in microtiter plates maintained at 37°C in a final volume of 100 μL. The reaction was initiated by the addition of each protease (approx. 0.01 μg/well) and the rate of substrate hydrolysis was recorded continuously at 37°C, over a 60 min period, by measuring the rate of increase in fluorescence (at λex 360 nm, λem 480 nm) using a FLUOstar Optima microplate reader (BMG Labtech).
The resultant inhibition progress curves obtained for each inhibitor were analyzed by the kinetic models developed by [Tian and Tsou (1982)] and [Walker and Elmore (1984)], for irreversible inhibitors, with curve fitting being achieved using GraFit (Erithacus Software), as described previously ([Ferguson et al., 2016]).
FIGURE 4 Progress curves for (A), chymotrypsin-catalysed hydrolysis of Succinyl-Ala-Ala-Pro-Phe-NHMec, in the presence of varying concentrations of NAP849. (B), NE-catalysed hydrolysis of MeO-succinyl-Ala-Ala-Pro-Val-NHMec, in the presence of varying concentrations of NAP800. (C) Trypsin-catalysed of Z-Gly-Gly-Arg-NHMec, in the presence of NAP830. (D) Plasmin-catalysed hydrolysis of Boc-Val-Leu-Lys-NHMec, in the presence of varying concentrations of NAP962. Assays were carried out in PBS, pH 7.4, at 37°C, in the presence of a range of inhibitor concentrations (0.25–50 μM) and a fixed concentration (50 μM) of the appropriate substrate for each protease.
The “product progress” curves for substrate hydrolysis in the presence of an inhibitor (Figure 4) are indicative of the action of irreversible inhibitors operating through the kinetic scheme illustrated in Figure 6. In this scheme, the formation of the reversible enzyme–inhibitor complex (EI) is zcharacterized by the inhibitor constant K i. This is converted into the covalent/irreversible complex (E-I) characterized by a first-order rate constant k 3. The overall second-order rate constant for the inactivation of E by I is given by the ratio k 3/K i ([Walker and Elmore, 1984]; [Tsou, 1988]).
Fluorogenic enzyme assays were carried out on a FLUOstar OPTIMA spectro-fluorimeter (BMG Labtech) with analysis performed on MARS Data Analysis Software (BMG Labtech). Black 96-well microtitre plates were supplied by Thermo Scientific. Trypsin from porcine pancreas, plasmin from human plasma and chymotrypsin from bovine pancreas were obtained from Sigma-Aldrich. Thrombin and Cathepsin B were supplied by R and D Systems. Human Neutrophil Elastase was supplied by Calbiochem. Fluorogenic substrates Z-Gly-Gly-Arg-NHMec, Succinyl-Ala-Ala-Pro-Phe-NHMec and MeO-Succinyl-Ala-Ala-Pro-Val-NHMec were supplied by Sigma-Aldrich. Boc-Val-Pro-Arg-NHMec was obtained from R and D Systems and Boc-Val-Leu-Lys-NHMec was supplied by PeptaNova. Phosphate Buffered Saline tablets were acquired from Sigma- Aldrich.
Protease inactivation by each of the compounds under study was evaluated using a fluorogenic enzyme assays. Protease-substrate combinations used as detailed in Section 2. Inhibitors were made up as 10 mM stock solutions in either DMF or DMSO, then diluted with PBS (pH 7.4) to give appropriate working concentrations. A final volume of 100 μL was used per well. Substrate (50 μM final concentration) was added to a black 96-well microtitre plate (Thermo Scientific), in duplicate, followed by addition of inhibitor, in such a manner to give the required final concentration. […]

T1 sequence (P00747 581-810 limits assumed): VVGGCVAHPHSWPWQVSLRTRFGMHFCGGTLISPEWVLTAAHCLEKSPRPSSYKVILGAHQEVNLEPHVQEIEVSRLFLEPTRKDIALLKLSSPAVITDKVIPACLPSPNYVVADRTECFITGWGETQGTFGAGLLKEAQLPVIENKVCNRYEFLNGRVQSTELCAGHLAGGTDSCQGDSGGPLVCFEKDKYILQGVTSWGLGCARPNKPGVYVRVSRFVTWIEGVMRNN
T1 sequence (P00747 97-580 partner limits assumed): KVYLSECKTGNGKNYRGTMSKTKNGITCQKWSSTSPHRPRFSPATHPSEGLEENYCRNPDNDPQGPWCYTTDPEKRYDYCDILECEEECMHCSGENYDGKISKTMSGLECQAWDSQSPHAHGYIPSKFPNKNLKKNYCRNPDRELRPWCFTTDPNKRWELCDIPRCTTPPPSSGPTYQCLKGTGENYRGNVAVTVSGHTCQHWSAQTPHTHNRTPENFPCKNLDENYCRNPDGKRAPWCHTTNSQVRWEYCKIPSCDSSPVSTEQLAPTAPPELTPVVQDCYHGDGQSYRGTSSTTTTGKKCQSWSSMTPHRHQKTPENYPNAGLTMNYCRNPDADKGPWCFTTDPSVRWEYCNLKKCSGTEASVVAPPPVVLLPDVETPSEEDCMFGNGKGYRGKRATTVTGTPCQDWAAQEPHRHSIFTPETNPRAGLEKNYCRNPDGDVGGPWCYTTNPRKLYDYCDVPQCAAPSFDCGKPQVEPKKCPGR

As to `NCCCCN(CC(=O)NCC(=O)NCC(=O)NCCCOCCOCCOCCCNC(=O)CCCCC1SCC2NC(=O)NC21)C(=O)ON1C(=O)CCC1=O` (stereo not drawn) [NAP830, Succinimidoyl-CO-NLys-Gly-Gly-PEG-Biotin], the Ki was found to be 7.2 µM, the “k 3” value is recorded as 0.4 (± 0.05) min^−1 and the “k 3 / K i” value is recorded as 6.2 (± 0.9) × 10^4 M^−1 min^−1.

On to `CC(C)N(CC(=O)NCCCOCCOCCOCCCNC(=O)CCCCC1SCC2NC(=O)NC21)C(=O)CN(Cc1ccccc1)C(=O)CN(CCCCN)C(=O)ON1C(=O)CCC1=O` (stereo not drawn) [NAP962, Succinimidoyl-CO-NLys-NPhe-NVal-PEG-Biotin], for which the Ki is 4.2 µM, the “k 3” value is given as 0.6 (± 0.1) min^−1 and the “k 3 / K i” value is given as 1.4 (± 0.3) × 10^5 M^−1 min^−1.
